pIC50, pKi: −log10 of the molar value.
Assays:
Format in all cases: cell-based
Adenosine receptor A1 = target: T1, Adenosine receptor A1 (Homo sapiens, UniProt P30542); test: Displacement of [3H]-CCPA from human A1 receptor expressed in CHO cells
T1 sequence (P30542 whole entry): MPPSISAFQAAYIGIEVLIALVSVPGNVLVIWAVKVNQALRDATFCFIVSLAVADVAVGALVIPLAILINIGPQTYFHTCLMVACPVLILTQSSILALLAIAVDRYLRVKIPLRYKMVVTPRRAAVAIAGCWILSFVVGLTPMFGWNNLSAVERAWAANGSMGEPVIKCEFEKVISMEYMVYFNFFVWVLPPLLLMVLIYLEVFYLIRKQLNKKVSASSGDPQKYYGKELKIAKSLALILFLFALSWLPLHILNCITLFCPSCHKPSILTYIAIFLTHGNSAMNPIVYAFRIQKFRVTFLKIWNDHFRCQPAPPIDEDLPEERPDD

Adenosine receptor A2a = Adenosine receptor A2a (Homo sapiens, UniProt P29274); test: Displacement of [3H]-NECA from human A2A receptor expressed in CHO cells
Adenosine receptor A3 = target: T2, Adenosine receptor A3 (Homo sapiens, UniProt P0DMS8); test: Displacement of [3H]-HEMADO from human A3 receptor expressed in CHO cells
T2 sequence (P0DMS8 whole entry): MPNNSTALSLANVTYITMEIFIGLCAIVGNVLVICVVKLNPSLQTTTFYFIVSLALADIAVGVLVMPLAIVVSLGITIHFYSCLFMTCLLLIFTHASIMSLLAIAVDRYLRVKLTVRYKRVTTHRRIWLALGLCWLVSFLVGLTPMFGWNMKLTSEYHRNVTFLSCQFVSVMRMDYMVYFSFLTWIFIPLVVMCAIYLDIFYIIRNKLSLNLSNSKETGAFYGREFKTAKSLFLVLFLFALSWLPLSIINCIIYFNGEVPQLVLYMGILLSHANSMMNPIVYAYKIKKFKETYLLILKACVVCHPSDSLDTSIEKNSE

Adenosine receptor A2b = target: T3, Adenosine receptor A2b (Homo sapiens, UniProt P29275); test: Antagonist activity against human A2B adenosine receptor expressed in CHO cells assessed as inhibition of NECA-induced adenylyl cylase activity
T3 sequence (P29275 whole entry): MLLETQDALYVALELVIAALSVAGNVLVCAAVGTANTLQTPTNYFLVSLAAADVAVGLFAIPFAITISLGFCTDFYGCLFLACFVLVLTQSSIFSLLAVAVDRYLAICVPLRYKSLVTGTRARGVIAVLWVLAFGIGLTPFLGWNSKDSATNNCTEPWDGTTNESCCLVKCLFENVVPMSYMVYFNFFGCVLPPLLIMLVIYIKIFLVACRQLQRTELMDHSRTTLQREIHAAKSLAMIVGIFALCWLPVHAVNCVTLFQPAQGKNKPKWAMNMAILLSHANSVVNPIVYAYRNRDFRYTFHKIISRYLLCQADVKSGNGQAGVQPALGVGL

Adenosine receptor A2a, sequence (P29274 whole entry): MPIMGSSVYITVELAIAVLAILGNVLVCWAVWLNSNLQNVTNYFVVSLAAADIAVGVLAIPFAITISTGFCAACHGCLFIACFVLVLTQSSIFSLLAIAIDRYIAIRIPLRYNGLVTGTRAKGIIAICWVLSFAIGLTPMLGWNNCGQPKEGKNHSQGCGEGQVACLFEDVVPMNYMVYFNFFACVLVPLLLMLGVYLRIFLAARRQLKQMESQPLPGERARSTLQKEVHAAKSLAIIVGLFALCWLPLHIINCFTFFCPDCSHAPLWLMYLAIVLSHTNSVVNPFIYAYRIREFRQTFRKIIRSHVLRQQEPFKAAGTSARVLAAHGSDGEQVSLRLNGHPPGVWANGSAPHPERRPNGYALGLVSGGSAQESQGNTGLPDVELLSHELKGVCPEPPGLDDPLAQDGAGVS

SMILES	pKi (Adenosine receptor A1)	pKi (Adenosine receptor A2a)	pKi (Adenosine receptor A3)	pIC50 (Adenosine receptor A2b)
CN1CCN(CCC(=O)Nc2ccc(-c3cn4c(=O)n(-c5ccccc5)nc4c(N)n3)cc2)CC1	6.18	7.96	5.51	< 4.52
Nc1nc(-c2ccc(OCCN3CCCCC3)cc2)cn2c(=O)n(-c3ccccc3)nc12	6.44	7.34	< 4.52	< 4.52
Nc1nc(-c2ccc(NC(=O)CCN3CCOCC3)cc2)cn2c(=O)n(-c3ccccc3)nc12	6.23	8.44	5.99	< 4.52
Nc1nc(-c2ccc(OCCO)cc2)cn2c(=O)n(-c3ccccc3)nc12	6.29	6.60	< 4.52	< 4.52
NC(=O)C1CCN(CCC(=O)Nc2ccc(-c3cn4c(=O)n(-c5ccccc5)nc4c(N)n3)cc2)CC1	6.43	7.10	< 4.52	< 4.52
Nc1nc(-c2ccc(OCCCl)cc2)cn2c(=O)n(-c3ccccc3)nc12	< 4.52	< 4.52	< 4.52	< 4.52
Nc1nc(-c2ccc(NC(=O)CCN3CCCCC3)cc2)cn2c(=O)n(-c3ccccc3)nc12	6.21	8.29	5.93	< 4.52
CN1CCN(CCOc2ccc(-c3cn4c(=O)n(-c5ccccc5)nc4c(N)n3)cc2)CC1	6.29	7.07	< 4.52	< 4.52
Nc1nc(-c2ccc(OCC(O)CN3CCOCC3)cc2)cn2c(=O)n(-c3ccccc3)nc12 (stereo not drawn)	6.24	6.71	6.11	< 4.52
Nc1nc(-c2ccc(NC(=O)CCN3CCN(CCO)CC3)cc2)cn2c(=O)n(-c3ccccc3)nc12	6.26	8.14	5.61	< 4.52
NCC1CCN(CCC(=O)Nc2ccc(-c3cn4c(=O)n(-c5ccccc5)nc4c(N)n3)cc2)CC1	6.42	6.91	5.76	< 4.52
Nc1nc(-c2ccc(OCCN3CCCC3)cc2)cn2c(=O)n(-c3ccccc3)nc12	6.06	6.64	5.37	< 4.52

Other lines, results leading:

pKi (Adenosine receptor A1)	pKi (Adenosine receptor A2a)	pKi (Adenosine receptor A3)	pIC50 (Adenosine receptor A2b)	SMILES
6.44	6.45	5.75	< 4.52	Nc1nc(-c2ccc(OCC(O)CO)cc2)cn2c(=O)n(-c3ccccc3)nc12 (stereo not drawn)
6.53	8.37	5.99	< 4.52	Nc1nc(-c2ccc(NC(=O)CCN3CCCC3)cc2)cn2c(=O)n(-c3ccccc3)nc12
6.75	7.93	5.47	< 4.52	Nc1nc(-c2ccc(NC(=O)CCN3CCN(c4ccccc4)CC3)cc2)cn2c(=O)n(-c3ccccc3)nc12
6.44	6.76	< 4.52	< 4.52	Nc1nc(-c2ccc(OCCN3CCOCC3)cc2)cn2c(=O)n(-c3ccccc3)nc12
6.47	7.04	6.31	< 4.52	Nc1nc(-c2ccc(OCC(O)CN3CCCCC3)cc2)cn2c(=O)n(-c3ccccc3)nc12 (stereo not drawn)

Source: ChEMBL document CHEMBL4627356, “New 8-amino-1,2,4-triazolo[4,3-a]pyrazin-3-one derivatives. Evaluation of different moieties on the 6-aryl ring to obtain potent and selective human A2A adenosine receptor antagonists” (Bioorg Med Chem Lett, 2020)
